Results reported in US9326516B2, “Molecules having certain pesticidal utilities, and intermediates, compositions, and processes related thereto” (Dow AgroSciences LLC, priority 2014, dated 2016).

Key:
Format in all cases: in vivo
[1] = system: Cabbage Looper (Trichoplusia ni, TRIPNI); experiment: Bioassay on Cabbage Looper (CL), 128-well diet tray assay; settings: 168 h, 50 μg/cm^2 on artificial diet, second instar CL larvae, 25° C., five to seven days, average of eight wells, read-out: CL % Control (or Mortality) rating
Description: (§1) Certain molecules disclosed in this document were tested against BAW and CEW using procedures described in the following examples. In the reporting of the results, the “BAW & CL Rating Table” was used (See Table Section).
Bioassays on CL were conducted using a 128-well diet tray assay, one to five second instar CL larvae were placed in each well (3 mL) of the diet tray that had been previously filled with 1 mL of artificial diet to which 50 μg/cm^2 of the test compound (dissolved in 50 μL of 90:10 acetone-water mixture) had been applied (to each of eight wells) and then allowed to dry. Trays were covered with a clear self-adhesive cover and held at 25° C., 14:10 light-dark for five to seven days. Percent mortality was recorded for the larvae in each well; activity in the eight wells was then averaged. The results are indicated in the table entitled “Table ABC: Biological Results” (See Table Section).

[2] = system: Green Peach Aphid (Myzus persicae, MYZUPE); experiment: Bioassay on Green Peach Aphid (GPA), foliar spray on cabbage seedlings; settings: 72 h, 200 ppm spray on infested cabbage seedlings, graded after three days, Abbott corrected % control, read-out: GPA % Control (or Mortality) rating
Description: Certain molecules disclosed in this document were tested against GPA using procedures described in the following example. In the reporting of the results, the “GPA Rating Table” was used (See Table Section).
Cabbage seedlings grown in 3-inch pots, with 2-3 small (3-5 cm) true leaves, were used as test substrate. The seedlings were infested with 20-50 GPA (wingless adult and nymph stages) one day prior to chemical application. Four pots with individual seedlings were used for each treatment. Test compounds (2 mg) were dissolved in 2 mL of acetone/methanol (1:1) solvent, forming stock solutions of 1000 ppm test compound. The stock solutions were diluted 5× with 0.025% Tween 20 in water to obtain the solution at 200 ppm test compound. A hand-held aspirator-type sprayer was used for spraying a solution to both sides of […] leaves until runoff. Reference plants (solvent check) were sprayed with the diluent only containing 20% by volume of acetone/methanol (1:1) solvent. Treated plants were held in a holding room for three days at approximately 25° C. and ambient relative humidity (RH) prior to grading. Evaluation was conducted by counting the number of live aphids per plant under a microscope. Percent Control was measured by using Abbott's correction formula (W. S. Abbott, “A Method of Computing the Effectiveness of an Insecticide” J. Econ. Entomol. 18 (1925), pp. 265-267) as follows. Corrected % Control=100*(X−Y)/X where X=No. of live aphids on solvent check plants and Y=No. of live aphids on treated plants

[3] = system: Beet Armyworm (Spodoptera exigua, LAPHEG); experiment: Bioassay on Beet Armyworm (BAW), 128-well diet tray assay; settings: 168 h, 50 μg/cm^2 on artificial diet, second instar BAW larvae, 25° C., five to seven days, average of eight wells, read-out: BAW % Control (or Mortality) rating
Description: as §1
Bioassays on BAW were conducted using a 128-well diet tray assay. one to five second instar BAW larvae were placed in each well (3 mL) of the diet tray that had been previously filled with 1 mL of artificial diet to which 50 μg/cm^2 of the test compound (dissolved in 50 μL of 90:10 acetone-water mixture) had been applied (to each of eight wells) and then allowed to dry. Trays were covered with a clear self-adhesive cover and held at 25° C., 14:10 light-dark for five to seven days. Percent mortality was recorded for the larvae in each well; activity in the eight wells was then averaged. The results are indicated in the table entitled “Table ABC: Biological Results” (See Table Section).

SMILES	mortality at 50 µg/cm2 [1] [%]	mortality at 200 ppm [2] [%]	mortality at 50 µg/cm2 [3] [%]
FC(F)(F)Oc1ccc(-n2cnc(-c3ccc(NC4=NC(c5ccc(Cl)cc5)CO4)cc3)n2)cc1 (stereo not drawn) [Compound F3, 4-(4-Chlorophenyl)-N-(4-(1-(4-(trifluoromethoxy)phenyl)-1H-1,2,4-triazol-3-yl)phenyl)-4,5-dihydrooxazol-2-amine]	50 to 100	0 to 80	50 to 100
Cc1ccc(C2COC(Nc3ccc(-c4ncn(-c5ccc(OC(F)(F)F)cc5)n4)cc3)=N2)cc1 (stereo not drawn) [Compound F4, 4-(p-Tolyl)-N-(4-(1-(4-(trifluoromethoxy)phenyl)-1H-1,2,4-triazol-3-yl)phenyl)-4,5-dihydrooxazol-2-amine]	50 to 100	0	0
COc1ccc(C2COC(Nc3ccc(-c4ncn(-c5ccc(OC(F)(F)F)cc5)n4)cc3)=N2)cc1 (stereo not drawn) [Compound F6, 4-(4-Methoxyphenyl)-N-(4-(1-(4-(trifluoromethoxy)phenyl)-1H-1,2,4-triazol-3-yl)phenyl)-4,5-dihydrooxazol-2-amine]	50 to 100	0	50 to 100
FC(F)(F)Oc1ccc(-n2cnc(-c3ccc(NC4=NC(c5ccccc5)CO4)cc3)n2)cc1 (stereo not drawn) [Compound F7, 4-Phenyl-N-(4-(1-(4-(trifluoromethoxy)phenyl)-1H-1,2,4-triazol-3-yl)phenyl)-4,5-dihydrooxazol-2-amine]	50 to 100	80 to 100	50 to 100
Fc1ccc(C2COC(Nc3ccc(-c4ncn(-c5ccc(OC(F)(F)F)cc5)n4)cc3)=N2)cc1 (stereo not drawn) [Compound F8, 4-(4-Fluorophenyl)-N-(4-(1-(4-(trifluoromethoxy)phenyl)-1H-1,2,4-triazol-3-yl)phenyl)-4,5-dihydrooxazol-2-amine]	50 to 100	0 to 80	50 to 100
FC(F)(F)Oc1ccc(-n2cnc(-c3ccc(NC4=NC(c5ccc(Br)cc5)CO4)cc3)n2)cc1 (stereo not drawn) [Compound F9, 4-(4-Bromophenyl)-N-(4-(1-(4-(trifluoromethoxy)phenyl)-1H-1,2,4-triazol-3-yl)phenyl)-4,5-dihydrooxazol-2-amine]	50 to 100	80 to 100	50 to 100
FC(F)(F)Oc1ccc(-n2cnc(-c3ccc(NC4=NC(c5cccc(Cl)c5)CO4)cc3)n2)cc1 (stereo not drawn) [Compound F10, 4-(3-Chlorophenyl)-N-(4-(1-(4-(trifluoromethoxy)phenyl)-1H-1,2,4-triazol-3-yl)phenyl)-4,5-dihydrooxazol-2-amine]	50 to 100	0	0
COc1ccc(C2COC(Nc3ccc(-c4ncn(-c5ccc(C(F)(F)F)cc5)n4)cc3)=N2)cc1 (stereo not drawn) [Compound F12, 4-(4-Methoxyphenyl)-N-(4-(1-(4-(trifluoromethyl)phenyl)-1H-1,2,4-triazol-3-yl)phenyl)-4,5-dihydrooxazol-2-amine]	0	0	0
Cc1ccc(C2COC(Nc3ccc(-c4ncn(-c5ccc(C(F)(F)F)cc5)n4)cc3)=N2)cc1 (stereo not drawn) [Compound F13, 4-(p-Tolyl)-N-(4-(1-(4-(trifluoromethyl)phenyl)-1H-1,2,4-triazol-3-yl)phenyl)-4,5-dihydrooxazol-2-amine]	0	0	0
FC(F)(F)c1ccc(-n2cnc(-c3ccc(NC4=NC(c5ccccc5)CO4)cc3)n2)cc1 (stereo not drawn) [Compound F14, 4-Phenyl-N-(4-(1-(4-(trifluoromethyl)phenyl)-1H-1,2,4-triazol-3-yl)phenyl)-4,5-dihydrooxazol-2-amine]	0	0	0
Fc1ccc(C2COC(Nc3ccc(-c4ncn(-c5ccc(C(F)(F)F)cc5)n4)cc3)=N2)cc1 (stereo not drawn) [Compound F15, 4-(4-Fluorophenyl)-N-(4-(1-(4-(trifluoromethyl)phenyl)-1H-1,2,4-triazol-3-yl)phenyl)-4,5-dihydrooxazol-2-amine]	50 to 100	0	50 to 100
FC(F)(F)c1ccc(-n2cnc(-c3ccc(NC4=NC(c5ccc(Cl)cc5)CO4)cc3)n2)cc1 (stereo not drawn) [Compound F16, 4-(4-Chlorophenyl)-N-(4-(1-(4-(trifluoromethyl)phenyl)-1H-1,2,4-triazol-3-yl)phenyl)-4,5-dihydrooxazol-2-amine]	50 to 100	80 to 100	50 to 100
FC(F)(F)Oc1ccc(C2COC(Nc3ccc(-c4ncn(-c5ccc(C(F)(F)F)cc5)n4)cc3)=N2)cc1 (stereo not drawn) [Compound F17, 4-(4-(Trifluoromethoxy)phenyl)-N-(4-(1-(4-(trifluoromethyl)phenyl)-1H-1,2,4-triazol-3-yl)phenyl)-4,5-dihydrooxazol-2-amine]	50 to 100	0	50 to 100
FC(F)(F)c1ccc(-n2cnc(-c3ccc(NC4=NC(c5cccc(Cl)c5)CO4)cc3)n2)cc1 (stereo not drawn) [Compound F18, 4-(3-Chlorophenyl)-N-(4-(1-(4-(trifluoromethyl)phenyl)-1H-1,2,4-triazol-3-yl)phenyl)-4,5-dihydrooxazol-2-amine]	50 to 100	0	50 to 100
FC(F)(F)c1ccc(-n2cnc(-c3ccc(NC4=NC(c5ccccc5Cl)CO4)cc3)n2)cc1 (stereo not drawn) [Compound F19, 4-(2-Chlorophenyl)-N-(4-(1-(4-(trifluoromethyl)phenyl)-1H-1,2,4-triazol-3-yl)phenyl)-4,5-dihydrooxazol-2-amine]	50 to 100	0	0
COc1ccc(C2CSC(Nc3ccc(-c4ncn(-c5ccc(OC(F)(F)F)cc5)n4)cc3)=N2)cc1 (stereo not drawn) [Compound F21, 4-(4-Methoxyphenyl)-N-(4-(1-(4-(trifluoromethoxy)phenyl)-1H-1,2,4-triazol-3-yl)phenyl)-4,5-dihydrothiazol-2-amine]	0	0	50 to 100
Cc1ccc(C2CSC(Nc3ccc(-c4ncn(-c5ccc(OC(F)(F)F)cc5)n4)cc3)=N2)cc1 (stereo not drawn) [Compound F22, 4-(p-Tolyl)-N-(4-(1-(4-(trifluoromethoxy)phenyl)-1H-1,2,4-triazol-3-yl)phenyl)-4,5-dihydrothiazol-2-amine]	0	0	0
FC(F)(F)Oc1ccc(-n2cnc(-c3ccc(NC4=NC(c5ccccc5)CS4)cc3)n2)cc1 (stereo not drawn) [Compound F23, 4-Phenyl-N-(4-(1-(4-(trifluoromethoxy)phenyl)-1H-1,2,4-triazol-3-yl)phenyl)-4,5-dihydrothiazol-2-amine]	0	0	0
Fc1ccc(C2CSC(Nc3ccc(-c4ncn(-c5ccc(OC(F)(F)F)cc5)n4)cc3)=N2)cc1 (stereo not drawn) [Compound F24, 4-(4-Fluorophenyl)-N-(4-(1-(4-(trifluoromethoxy)phenyl)-1H-1,2,4-triazol-3-yl)phenyl)-4,5-dihydrothiazol-2-amine]	0 to 50	0	0 to 50
FC(F)(F)Oc1ccc(-n2cnc(-c3ccc(NC4=NC(c5ccc(Cl)cc5)CS4)cc3)n2)cc1 (stereo not drawn) [Compound F25, 4-(4-Chlorophenyl)-N-(4-(1-(4-(trifluoromethoxy)phenyl)-1H-1,2,4-triazol-3-yl)phenyl)-4,5-dihydrothiazol-2-amine]	0	0	0
